Source: patent publication US12338243B2, “P2X7 modulators” (JANSSEN PHARMACEUTICA NV, priority 2014, dated 2025)
Values joined by “and” are separate entries in the source; they are usually repeats but may differ in a detail not shown here. Identical values can stand only once.

Columns and labels:
[1] = Biodistribution studies of radiotracer in healthy female Wistar rats; assay type: in vivo; conditions: for % ID blood: blood mass assumed 7% of body mass; for SUV blood / % ID carcass / % ID cerebellum / SUV cerebellum / % ID cerebrum / SUV cortex / % ID heart / SUV hippocampus / % ID intestines / % ID kidneys / % ID liver / % ID lungs / SUV rest of cerebrum / % ID spleen + pancreas / % ID stomach / SUV striatum / % ID urine / SUV whole cerebrum: mean ± SD, n = 3
Description: (§1) HPLC analysis was performed on a LaChrom Elite HPLC system (Hitachi, Armstadt, Germany) connected to a UV spectrometer set at 220 nm. For the analysis of radiolabeled compounds, the HPLC eluate, after passage through the UV detector, was led over a shielded 3-inch NaI(Tl) scintillation detector connected to a multichannel analyser (Gabi box, Raytest, Straubenhardt, Germany). The output signal was recorded and analysed using a GINA Star data acquisition system (Raytest, Straubenhardt, Germany). Radioactivity in samples of biodistribution studies, cell uptake experiments and radiometabolite analysis was quantified using an automated gamma counter equipped with a 3-inch NaI(Tl) well crystal coupled to a multichannel analyser (Wallac 2480 Wizard, Wallac, Turku, Finland). Results were corrected for background radiation, physical decay and counter dead time.
Animals were housed in individually ventilated cages in a thermoregulated (˜22° C.), humidity-controlled facility under a 12 h/12 h light/dark cycle with access to food and water ad libitum. All animal experiments were conducted according to the Belgian code of practice for the care and use of animals, after approval from the KU Leuven University Ethics Committee for Animals.
The biodistribution studies were performed in healthy female Wistar rats (body weight, 185-220 g) at 2, 30 and 60 min after tracer injection (n=3/time point). […] The animals were sacrificed by decapitation at the indicated time points. Blood and major organs were collected in tared tubes and weighed. The radioactivity in the dissected organs and blood was counted using an automated gamma counter. For calculation of total blood radioactivity, blood mass was assumed to be 7% of the body mass.

[2] = Rat plasma radiometabolite analysis; assay type: in vivo; conditions: 30 min after radiotracer injection, n=2
Description: as §1
Radiometabolites of [^11C]55 in plasma of normal female Wistar rats (n=2) were quantified at 30 min after tracer injection. […] The fraction of more lipophilic radiometabolites eluting after the intact tracer was negligible (<1.5%).

## C[C@H]1Cn2c(nnc2-c2cc(O[11CH3])ccn2)CN1C(=O)c1cccc(Cl)c1Cl [[^11C]55, (S)-(2,3-dichlorophenyl)(3-(4-[^11C]methoxypyridin-2-yl)-6-methyl-5,6-dihydro-[1,2,4]triazolo[4,3-a]pyrazin-7(8H)-yl)methanone]
[1]; 2 min after tracer injection
  % ID blood: 10.0 % ID and 10.0 ± 2.4 % ID
  SUV blood: 1.42 ± 0.3
  % ID carcass: 35.1 ± 4.1 % ID
  % ID cerebellum: 0.1 ± 0.0 % ID
  SUV cerebellum: 1.02 ± 0.1
  % ID cerebrum: 0.5 ± 0.0 % ID
  SUV cortex: 0.80 ± 0.2
  % ID heart: 1.3 ± 0.2 % ID
  SUV hippocampus: 0.74 ± 0.0
  % ID intestines: 14.0 ± 1.8 % ID
  % ID kidneys: 4.5 ± 0.8 % ID
  % ID liver: 34.8 ± 2.1 % ID
  % ID lungs: 2.1 ± 0.3 % ID
  SUV rest of cerebrum: 0.86 ± 0.0
  % ID spleen + pancreas: 1.4 ± 0.4 % ID
  % ID stomach: 1.7 ± 0.3 % ID
  SUV striatum: 0.78 ± 0.0
  % ID urine: 0.1 ± 0.1 % ID
  SUV whole cerebrum: 0.83 ± 0.0
[1]; 30 min after tracer injection
  % ID blood: 5.2 ± 0.6 % ID
  SUV blood: 0.74 ± 0.1
  % ID carcass: 46.9 ± 0.5 % ID
  % ID cerebellum: 0.1 ± 0.0 % ID
  SUV cerebellum: 0.53 ± 0.0
  % ID cerebrum: 0.3 ± 0.0 % ID
  SUV cortex: 0.58 ± 0.1
  % ID heart: 0.4 ± 0.0 % ID
  SUV hippocampus: 0.43 ± 0.0
  % ID intestines: 23.8 ± 1.1 % ID
  % ID kidneys: 1.9 ± 0.1 % ID
  % ID liver: 19.4 ± 0.5 % ID
  % ID lungs: 1.0 ± 0.1 % ID
  SUV rest of cerebrum: 0.46 ± 0.0
  % ID spleen + pancreas: 0.6 ± 0.1 % ID
  % ID stomach: 2.1 ± 1.0 % ID
  SUV striatum: 0.45 ± 0.0
  % ID urine: 0.9 ± 0.0 % ID
  SUV whole cerebrum: 0.46 ± 0.0
[1]; 60 min after tracer injection
  % ID blood: 5.3 % ID and 5.3 ± 0.6 % ID
  SUV blood: 0.75 ± 0.1
  % ID carcass: 43.2 ± 5.3 % ID
  % ID cerebellum: 0.1 ± 0.0 % ID
  SUV cerebellum: 0.59 ± 0.1
  % ID cerebrum: 0.3 ± 0.1 % ID
  SUV cortex: 0.65 ± 0.1
  % ID heart: 0.4 ± 0.1 % ID
  SUV hippocampus: 0.52 ± 0.1
  % ID intestines: 26.7 ± 9.1 % ID
  % ID kidneys: 1.8 ± 0.2 % ID
  % ID liver: 17.1 ± 0.3 % ID
  % ID lungs: 1.1 ± 0.4 % ID
  SUV rest of cerebrum: 0.53 ± 0.1
  % ID spleen + pancreas: 0.6 ± 0.1 % ID
  % ID stomach: 5.1 ± 3.4 % ID
  SUV striatum: 0.50 ± 0.1
  % ID urine: 1.1 ± 0.5 % ID
  SUV whole cerebrum: 0.54 ± 0.1
[1]; liver and intestines, 60 min after tracer injection
  injected dose retained in the liver and the intestines: 43.8%
[1]; total brain, 2 min after injection
  total initial brain uptake: 0.6%
[1]; total brain, 60 min after tracer injection
  total brain uptake: 0.4%
[1]; urine and kidneys, 60 min after injection
  % ID in urine and kidneys: 2.9 % ID
[2]
  recovered radioactivity in the plasma in the form of intact tracer: 70±6%
